Measured values taken from US7179825B2, “Retinoic acid mimetic anilides” (Janssen Pharmaceutica N.V., priority 1997, dated 2007).
pIC50: −log10 of the molar value.

Experiments:
[1] = tested on: metabolism of retinoic acid in human breast cancer cells; experiment: Inhibition of retinoic acid (RA) metabolism (Example C.1); format: cell-based; conditions: MCF-7 human breast cancer cells, 3H-RA as substrate; concentration needed to reduce the amount of metabolites to 50% of the control
In short: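 MCF-7 cells, pre-stimulated with RA the day before, incubated with ³H-RA substrate and test compound in 1% DMSO. Polar ³H-metabolites separated from unmetabolized RA and counted by scintillation. IC50 is the concentration cutting metabolite formation to 50% of control, with blank run alongside.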

[2] = tested on: Ovariectomized rats; experiment: Vaginal keratinization test on ovariectomized rats (Example C.2); format: in vivo; conditions: estradiol undecylate induced keratinization, per os once daily on days 1-3, active dose = 50% of rats show complete suppression
In short: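 Ovariectomized rats given s.c. estradiol undecylate (100 μg per 100 g body weight in sesame oil), then oral compound once daily on days 1-3 (vehicle PEG 200). Vaginas assessed histologically one day after last dose; lowest active dose (mg/kg) is the dose giving complete keratinization suppression in 50% of rats.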

| Structure (SMILES) | pIC50 [1] | LAD (lowest active dose) [2] |
| --- | --- | --- |
| O=C(Nc1ccc(C(C2CCCCC2)n2ccnc2)cc1)/C(=C/c1ccccc1)c1ccccc1 (racemic) [Compound 468] | < 7.00 | 10.00 mg/kg |
| C/C(=C\c1ccccc1)C(=O)Nc1ccc(C(C2CC2)n2ccnc2)cc1 (racemic) [Compound 469] | < 7.00 | >10.00 mg/kg |
| C/C(=C\c1ccccc1)C(=O)Nc1ccc(C(C2CCCC2)n2ccnc2)cc1 (racemic) [Compound 470] | 7.73 | >20.00 mg/kg |
| CC(C)C(c1ccc(NC(=O)C(=Cc2ccccc2)C2CCCC2)cc1)n1ccnc1 (racemic) [Compound 472] | 7.02 | >20.00 mg/kg |
| CC(C)C(c1ccc(NC(=O)/C(=C/c2ccccc2)C2CCCCC2)cc1)n1ccnc1 (racemic) [Compound 473] | < 7.00 | >10.00 mg/kg |
| C/C(=C\c1ccccc1)C(=O)Nc1ccc(C(CC(C)C)n2ccnc2)cc1 (racemic) [Compound 474] | 7.80 | >10.00 mg/kg |
| C/C(=C\c1ccccc1)C(=O)Nc1ccc(C(C2COCOC2)n2ccnc2)cc1 (racemic) [Compound 477] | < 6.00 | >10.00 mg/kg |
| C/C(=C\c1ccccc1)C(=O)Nc1ccc(C(C(c2ccccc2)c2ccccc2)n2ccnc2)cc1 (racemic) [Compound 485] | < 7.00 | 5.00 mg/kg |
| O=C(/C=C/c1ccccc1)Nc1ccc(C(c2ccccc2)n2ccnc2)cc1 (racemic) [Compound 497] | 7.42 | >20.00 mg/kg |
| CC(C)C(c1ccc(NC(=O)/C=C/c2ccccc2)cc1)n1ccnc1 (racemic) [Compound 502] | 7.48 | 5.00 mg/kg |
| CC(=CC(=O)Nc1ccc(C(c2ccc(Cl)cc2)n2ccnc2)cc1)c1ccccc1 (racemic) [Compound 512] | 6.21 | >20.00 mg/kg |
| CCCCC(=CC(=O)Nc1ccc(C(c2ccc(Cl)cc2)n2ccnc2)cc1)c1ccccc1 (racemic) [Compound 513] | 6.07 | >20.00 mg/kg |
| C/C(=C\c1cccnc1)C(=O)Nc1ccc(C(C(C)C)n2ccnc2)cc1 (racemic) [Compound 575] | 7.59 | 20.00 mg/kg |
| C/C(=C\c1cccc(Cl)c1)C(=O)Nc1ccc(C(C(C)C)n2ccnc2)cc1 (racemic) [Compound 577] | 7.37 | 10.00 mg/kg |
| CC(=CCCc1ccccc1)C(=O)Nc1ccc(C(C(C)C)n2ccnc2)cc1 (racemic) [Compound 587] | 7.50 | >10.00 mg/kg |
| C/C(=C\c1ccc2ccccc2c1)C(=O)Nc1ccc(C(C(C)C)n2ccnc2)cc1 (racemic) [Compound 591] | 7.40 | >10.00 mg/kg |
| C/C(=C\c1ccc2[nH]c(=O)ccc2c1)C(=O)Nc1ccc(C(C(C)C)n2ccnc2)cc1 (racemic) [Compound 598] | 7.62 | >10.00 mg/kg |
| C/C(=C\c1ccc(C)o1)C(=O)Nc1ccc(C(C(C)C)n2ccnc2)cc1 (racemic) [Compound 601] | 7.70 | 10.00 mg/kg |
| C/C(=C\c1ccc2nnn(C)c2c1)C(=O)Nc1ccc(C(C(C)C)n2ccnc2)cc1 (racemic) [Compound 602] | 7.59 | >10.00 mg/kg |
| C/C(=C\c1cc(=O)[nH]c2ccccc12)C(=O)Nc1ccc(C(C(C)C)n2ccnc2)cc1 (racemic) [Compound 603] | < 7.00 | >10.00 mg/kg |

Compounds with a higher pIC50 [1], results first:

| pIC50 [1] | Structure (SMILES) | LAD (lowest active dose) [2] |
| --- | --- | --- |
| 8.79 | CCC(CC)C(c1ccc(NC(=O)/C(C)=C/c2ccccc2)cc1)n1ccnc1 (racemic) [Compound 478] | 2.50 mg/kg |
| 8.55 | C/C(=C\c1ccccc1)C(=O)Nc1ccc(C(n2ccnc2)C(C)(C)C)cc1 (racemic) [Compound 481] | 10.00 mg/kg |
| 7.98 | CC(C)C(c1ccc(NC(=O)C=C(c2ccccc2)c2ccccc2)cc1)n1ccnc1 (racemic) [Compound 511] | >20.00 mg/kg |
| 8.75 | C/C=C(\C)C(=O)Nc1ccc(C(C(C)C)n2ccnc2)cc1 (racemic) [Compound 574] | 20.00 mg/kg |
| 8.12 | CC(=Cc1cccc(C(F)(F)F)c1)C(=O)Nc1ccc(C(C(C)C)n2ccnc2)cc1 (racemic) [Compound 578] | >10.00 mg/kg |
| 7.91 | CC(=Cc1ccc(Cl)cc1)C(=O)Nc1ccc(C(C(C)C)n2ccnc2)cc1 (racemic) [Compound 579] | 10.00 mg/kg |
| 8.80 | COc1ccc(/C=C(\C)C(=O)Nc2ccc(C(C(C)C)n3ccnc3)cc2)cc1 (racemic) [Compound 582] | >10.00 mg/kg |
| 8.56 | C/C(=C\c1ccc(F)cc1)C(=O)Nc1ccc(C(C(C)C)n2ccnc2)cc1 (racemic) [Compound 583] | 10.00 mg/kg |
| 8.14 | C/C(=C\c1ccccc1F)C(=O)Nc1ccc(C(C(C)C)n2ccnc2)cc1 (racemic) [Compound 585] | 10.00 mg/kg |
| 8.43 | CC(=Cc1cccc(F)c1)C(=O)Nc1ccc(C(C(C)C)n2ccnc2)cc1 (racemic) [Compound 586] | >10.00 mg/kg |
| 8.56 | C/C(=C\Cc1ccccc1)C(=O)Nc1ccc(C(C(C)C)n2ccnc2)cc1 (racemic) [Compound 589] | 10.00 mg/kg |
| 8.56 | C/C(=C\c1ccc2ncccc2c1)C(=O)Nc1ccc(C(C(C)C)n2ccnc2)cc1 (racemic) [Compound 590] | >10.00 mg/kg |
| 8.38 | C/C(=C\c1ccnc2ccccc12)C(=O)Nc1ccc(C(C(C)C)n2ccnc2)cc1 (racemic) [Compound 592] | >10.00 mg/kg |
| 8.57 | C/C(=C\c1cccc2ccccc12)C(=O)Nc1ccc(C(C(C)C)n2ccnc2)cc1 (racemic) [Compound 593] | >10.00 mg/kg |
| 8.32 | C/C(=C\c1ccco1)C(=O)Nc1ccc(C(C(C)C)n2ccnc2)cc1 (racemic) [Compound 594] | >10.00 mg/kg |
| 8.42 | C/C(=C\c1cccs1)C(=O)Nc1ccc(C(C(C)C)n2ccnc2)cc1 (racemic) [Compound 595] | 10.00 mg/kg |
| 8.10 | C/C(=C\c1ccsc1)C(=O)Nc1ccc(C(C(C)C)n2ccnc2)cc1 (racemic) [Compound 596] | 10.00 mg/kg |
| 8.30 | C=C(C)C(=O)Nc1ccc(C(C(C)C)n2ccnc2)cc1 (racemic) [Compound 597] | >10.00 mg/kg |
| 8.20 | C/C(=C\c1ccc2nn(C)nc2c1)C(=O)Nc1ccc(C(C(C)C)n2ccnc2)cc1 (racemic) [Compound 599] | >20.00 mg/kg |
| 8.54 | C/C(=C\c1ccccn1)C(=O)Nc1ccc(C(C(C)C)n2ccnc2)cc1 (racemic) [Compound 604] | >10.00 mg/kg |
| 7.85 | CC(=Cc1cccn1C)C(=O)Nc1ccc(C(C(C)C)n2ccnc2)cc1 (racemic) [Compound 605] | >10.00 mg/kg |
